From PubChem BioAssay (NCI)
Where “and” joins values, the source holds several entries; their conditions need not be identical. Identical values can stand only once.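 1) Cells in 96-well plates. 2) Compound, 48 h, 5 concentrations. 3) Linear interpolation between surrounding doses. 4) Unreached endpoint = highest concentration. The concentration for 50% growth inhibition is given as GI50. At the TGI there is no net growth.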

Assays:
Assay in all cases: growth of human tumour cells (NCI), 48 h
SR leukemia = tested on: SR leukemia
RPMI-8226 leukemia = tested on: RPMI-8226 leukemia
SW-620 colon = tested on: SW-620 colon
ACHN renal = tested on: ACHN renal
CAKI-1 renal = tested on: CAKI-1 renal
COLO 205 colon = tested on: COLO 205 colon
HT29 colon = tested on: HT29 colon
HCT-15 colon = tested on: HCT-15 colon
MALME-3M melanoma = tested on: MALME-3M melanoma
RXF 393 renal = tested on: RXF 393 renal

Row | SMILES | TGI (SR leukemia) | TGI (RPMI-8226 leukemia) | TGI (SW-620 colon) | TGI (ACHN renal) | TGI (CAKI-1 renal) | TGI (COLO 205 colon) | TGI (HT29 colon) | TGI (HCT-15 colon) | TGI (MALME-3M melanoma) | GI50 (MALME-3M melanoma) | GI50 (SR leukemia) | GI50 (RPMI-8226 leukemia) | GI50 (SW-620 colon) | GI50 (ACHN renal) | GI50 (CAKI-1 renal) | GI50 (COLO 205 colon) | GI50 (HT29 colon) | GI50 (RXF 393 renal) | TGI (RXF 393 renal) | GI50 (HCT-15 colon)
1 | CC1(C=O)CCC23COC4(CCC5C6(C)CCC(OC7OCC(OC8OC(CO)C(O)C(OC9OC(CO)C(O)C(O)C9O)C8OC8OCC(O)C(O)C8O)C(O)C7OC7OC(CO)C(O)C(O)C7O)C(C)(C)C6CCC5(C)C4(C)CC2O)C3C1 (configuration not stated) | 0.617 µM | 4.45 µM | 3.14 µM | 2.57 µM | 2.32 µM | 2.56 µM | 2.07 µM | 2.86 µM | – | – | – | – | – | – | – | – | – | – | – | –
2 | COc1cc([N+](=O)[O-])ccc1NC(=O)c1cccc([N+](=O)[O-])c1O | > 100 µM | 61.9 µM | > 100 µM | 62 µM | 48.8 µM | 40.3 µM | > 100 µM | > 100 µM | 63.5 µM | – | – | – | – | – | – | – | – | – | – | –
3 | CC1(O)COCCCCOc2c(CN)cccc2NC(=O)c2nc(cnc2N)-c2ccc(cc2)S(=O)(=O)C(C)(C)C1 (configuration not stated) | 0.391 µM | 3.5 µM | 1.98 µM | 2.06 µM | 2.53 µM | 2.17 µM | 2.47 µM | 1.82 µM | 3.43 µM | 1.77 µM | < 0.01 µM | 1.2 µM | 0.42 µM | 0.042 µM | 1.22 µM | 0.546 µM | 0.408 µM | 0.015 µM | 1.87 µM | 0.227 µM
4 | NCCNCCNc1ccc(NCCNCCN)c2c1C(=O)c1c(O)ccc(O)c1C2=O | 23.8 µM | > 100 µM | > 100 µM | > 100 µM | > 100 µM | > 100 µM | > 100 µM | > 100 µM | > 100 µM | – | – | – | – | – | – | – | – | – | > 100 µM | –
5 | CCc1ccc2c(c1)C(=O)c1c-2n(CCCN)c(=O)c2cc([N+](=O)[O-])ccc12 | – | – | – | 2.84 µM | 3.11 µM | 2.51 µM | 2.07 µM | – | 2.8 µM | 1.42 µM | – | – | – | 1.51 µM | 1.55 µM | 1.21 µM | 0.452 µM | – | – | –
6 | CCOC(=O)Nc1cc2c(c(N)n1)N=C(c1ccc3ccccc3c1)CN2 | > 100 µM | – | 31.4 µM | > 83.3 µM | 36.9 µM | – | 1.5 µM | > 100 µM | 19.3 µM | – | – | – | – | – | – | – | – | – | 27.4 µM | –
7 | c1ccc([P+](c2ccccc2)(c2ccccc2)c2ccc(-c3ccc([P+](c4ccccc4)(c4ccccc4)c4ccccc4)cc3)cc2)cc1 | – | > 100 µM | > 100 µM | 73.3 µM | > 100 µM | 31.5 µM | 63.5 µM | > 100 µM | 89.9 µM | – | – | – | – | – | – | – | – | – | > 100 µM | –
8 | CN(C)CCCN1c2ccc([N+](=O)[O-])cc2CCc2cc([N+](=O)[O-])ccc21 | > 100 µM and 31.4 µM | 55.3 µM and 34.1 µM | 34 µM and 33.2 µM | 23.5 µM and 29 µM | 29.1 µM | 32 µM and 29.4 µM | 30.8 µM and 27.7 µM | 33 µM and 33.6 µM | 23.2 µM and 32.8 µM | – | 30.4 µM and 13.1 µM | – | – | – | – | – | – | – | 19.9 µM and 25.6 µM | –
9 | CO/N=C(\C)c1cccc(Nc2nc3ccccc3c3occc23)c1 | 34.2 µM | 40.8 µM | – | 27.9 µM | 25.4 µM | 24.5 µM | 17.6 µM | 24.5 µM | 29.7 µM | – | – | – | – | – | – | – | – | – | 27.2 µM | –
10 | N=C(N)SCc1cccc([N+](=O)[O-])c1 | – | 59.1 µM | > 100 µM | – | 74.1 µM | 47.9 µM | 85.1 µM | > 100 µM | > 76.6 µM | – | – | – | – | – | – | – | – | – | 61.4 µM | –
11 | CCO[C@]12CCC[C@H]1[C@@H]1C(=O)c3ccccc3C(=O)C1=C(C)O2 | 59.1 µM | > 100 µM | > 100 µM | > 100 µM | > 100 µM | > 100 µM | > 100 µM | > 100 µM | > 100 µM | – | – | – | – | – | – | – | – | – | 56.4 µM | –
12 | O=C(CSc1nc2ccc(I)cc2c(=O)n1Cc1ccccc1)NN1C(=O)c2ccccc2C1=O | > 100 µM | > 100 µM | > 100 µM | 68.9 µM | 33.5 µM | > 100 µM | > 100 µM | > 100 µM | 62.8 µM | – | – | – | – | – | – | – | – | – | 25.5 µM | –
13 | CCOP(=O)(OCC)C(Nc1cccc(F)c1)c1ccc(N(C)C)cc1 (configuration not stated) | > 100 µM | > 100 µM | > 100 µM | > 100 µM | > 100 µM | > 100 µM | > 100 µM | > 100 µM | > 100 µM | – | – | – | – | – | – | – | – | – | > 100 µM | –
14 | Cc1c2cc[n+](C)cc2c(C)c2c1oc1ccccc12 | 30.5 µM | 30.1 µM | 51.4 µM | > 100 µM | 98.3 µM | 14.8 µM | > 77.1 µM | > 100 µM | 3.99 µM | – | – | – | – | – | – | – | – | – | 70.3 µM | –
